The structures appear in SMILES notation.

Broadly, the IC50 is the concentration that gives 50% inhibition.

One experiment addresses mTOR (Homo sapiens, UniProt P42345). As to the kind of experiment: mTOR kinase inhibition, Lance Ultra assay. Format: biochemical. Conditions: mTOR IC50, text and Fig. 3A.
As for `Nc1ccccc1/N=c1\cc(-c2ccc3c(c2)OCO3)oc2ccccc12` [Compound 4a], half-maximal inhibition (IC50) required 1.5 µM.

Still in this experiment, the particulars now being: mTOR, IC50, mean ± SD of triplicate measurements.
`CC(C)(C)[C@H](N)C(=O)Nc1ccccc1/N=c1\cc(-c2ccc3c(c2)OCO3)oc2ccccc12` [Compound 5j, (S,E)-2-amino-N-(2-((2-(benzo[d][1,3]dioxol-5-yl)-4H-chromen-4-ylidene)amino)phenyl)-3,3-dimethylbutanamide] came in with an IC50 of over 10 µM.
The same measure, in the same setting: in the case of `NCC(=O)Nc1ccccc1/N=c1\cc(-c2ccc3c(c2)OCCO3)oc2cc(F)ccc12` [Compound 5y, (E)-2-amino-N-(2-((2-(2,3-dihydrobenzo[b][1,4]dioxin-6-yl)-7-fluoro-4H-chromen-4-ylidene)amino)phenyl)acetamide] it was over 10 µM.
The same measure, in the same setting: the result for `Nc1nc2ccc(-c3c/c(=N\c4ccccc4NC(=O)CCN4CCCC4)c4ccccc4o3)cc2o1` [Compound 12g, (E)-N-(2-((2-(2-aminobenzo[d]oxazol-6-yl)-4H-chromen-4-ylidene)amino)phenyl)-3-(pyrrolidin-1-yl)propanamide] reads over 10 µM.
The compound `CN(C)CCC(=O)Nc1ccccc1/N=c1\cc(-c2ccc3nc(N)oc3c2)oc2ccccc12` [Compound 12e, (E)-N-(2-((2-(2-aminobenzo[d]oxazol-6-yl)-4H-chromen-4-ylidene)amino)phenyl)-3-(dimethylamino)propanamide] gave an IC50 of 2.61 ± 0.201 µM.
Still for that read-out and setting: in the case of `C[C@H](N)C(=O)Nc1ccccc1/N=c1\cc(-c2ccc3c(c2)OCCO3)oc2cc(F)ccc12` [Compound 5x, (S,E)-2-amino-N-(2-((2-(2,3-dihydrobenzo[b][1,4]dioxin-6-yl)-7-fluoro-4H-chromen-4-ylidene)amino)phenyl)propanamide] it was over 10 µM.
The same measure, in the same setting: in the case of `C[C@H](N)C(=O)Nc1ccccc1/N=c1\cc(-c2ccc3c(c2)OCCO3)oc2c(N)cccc12` [Compound 5r, (S,E)-2-amino-N-(2-((8-amino-2-(2,3-dihydrobenzo[b][1,4]dioxin-6-yl)-4H-chromen-4-ylidene)amino)phenyl)propanamide] it was over 10 µM; in that of `COc1ccc2/c(=N/c3ccccc3NC(=O)[C@H](C)N)cc(-c3ccc4c(c3)OCCO4)oc2c1` [Compound 5s, (S,E)-2-amino-N-(2-((2-(2,3-dihydrobenzo[b][1,4]dioxin-6-yl)-7-methoxy-4H-chromen-4-ylidene)amino)phenyl)propanamide], over 10 µM; in that of `NCC(=O)Nc1ccccc1/N=c1\cc(-c2ccc3c(c2)OCCO3)oc2ccccc12` [Compound 5p, (E)-2-amino-N-(2-((2-(2,3-dihydrobenzo[b][1,4]dioxin-6-yl)-4H-chromen-4-ylidene)amino)phenyl)acetamide], 1.52 ± 0.121 µM.
The same measure, in the same setting: in the case of `O=C(Nc1ccccc1/N=c1\cc(-c2ccc3c(c2)OCO3)oc2ccccc12)N1CCOCC1` [Compound 5h, (E)-N-(2-((2-(benzo[d][1,3]dioxol-5-yl)-4H-chromen-4-ylidene)amino)phenyl)morpholine-4-carboxamide] it was over 10 µM; in that of `N#Cc1ccc2oc(-c3ccc4nc(N)oc4c3)c/c(=N\c3ccccc3NC(=O)CCN)c2c1` [Compound 12l, (E)-3-amino-N-(2-((2-(2-aminobenzo[d]oxazol-6-yl)-6-cyano-4H-chromen-4-ylidene)amino)phenyl)propanamide], 1.24 ± 0.0861 µM.
`C[C@H](N)C(=O)Nc1ccccc1/N=c1\cc(-c2ccc3c(c2)OCO3)oc2ccccc12` [Compound 5b, (S,E)-2-amino-N-(2-((2-(benzo[d][1,3]dioxol-5-yl)-4H-chromen-4-ylidene)amino)phenyl)propanamide] yielded an IC50 of 3.19 ± 0.194 µM.
Still for that read-out and setting: in the case of `COc1ccc2/c(=N/c3ccccc3NC(=O)CN)cc(-c3ccc4c(c3)OCCO4)oc2c1` [Compound 5t, (E)-2-amino-N-(2-((2-(2,3-dihydrobenzo[b][1,4]dioxin-6-yl)-7-methoxy-4H-chromen-4-ylidene)amino)phenyl)acetamide] it was over 10 µM.
In turn, `NCCC(=O)Nc1ccccc1/N=c1\cc(-c2ccc3nc(N)oc3c2)oc2cc(Br)ccc12` [Compound 12o, (E)-3-amino-N-(2-((2-(2-aminobenzo[d]oxazol-6-yl)-7-bromo-4H-chromen-4-ylidene)amino)phenyl)propanamide] displayed a half-maximal inhibitory concentration (IC50) of 9.34 ± 0.748 µM.
In turn, `NCC(=O)Nc1ccccc1/N=c1\cc(-c2ccc3c(c2)OCO3)oc2c(N)cccc12` [Compound 5m, (E)-2-amino-N-(2-((2-(benzo[d][1,3]dioxol-5-yl)-8-amino-4H-chromen-4-ylidene)amino)phenyl)acetamide] registered an IC50 of 6.16 ± 1.11 µM.
On the same count and under the same terms, the result for `NCCC(=O)Nc1ccc(/N=c2\cc(-c3ccc4c(c3)OCO4)oc3ccccc23)cc1` [Compound 5ac, (E)-3-amino-N-(4-((2-(benzo[d][1,3]dioxol-5-yl)-4H-chromen-4-ylidene)amino)phenyl)propanamide] reads over 10 µM; that for `NCCCCC(=O)Nc1ccccc1/N=c1\cc(-c2ccc3c(c2)OCO3)oc2ccccc12` [Compound 5g, (E)-5-amino-N-(2-((2-(benzo[d][1,3]dioxol-5-yl)-4H-chromen-4-ylidene)amino)phenyl)pentanamide], over 10 µM; that for `Nc1nc2ccc(-c3c/c(=N\c4ccccc4NC(=O)CCN4CCOCC4)c4ccccc4o3)cc2o1` [Compound 12h, (E)-N-(2-((2-(2-aminobenzo[d]oxazol-6-yl)-4H-chromen-4-ylidene)amino)phenyl)-3-morpholinopropanamide], over 10 µM.
On to `N[C@@H](CO)C(=O)Nc1ccccc1/N=c1\cc(-c2ccc3c(c2)OCO3)oc2ccccc12` [Compound 5c, (S,E)-2-amino-N-(2-((2-(benzo[d][1,3]dioxol-5-yl)-4H-chromen-4-ylidene)amino)phenyl)-3-hydroxypropanamide], for which the half-inhibitory concentration (IC50) was over 10 µM.
Same read-out and setting: the result for `C[C@H](N)C(=O)Nc1ccccc1/N=c1\cc(-c2ccc3c(c2)OCCO3)oc2c([N+](=O)[O-])cccc12` [Compound 5q, (S,E)-2-amino-N-(2-((2-(2,3-dihydrobenzo[b][1,4]dioxin-6-yl)-8-nitro-4H-chromen-4-ylidene)amino)phenyl)propanamide] reads over 10 µM; that for `NCCC(=O)Nc1ccccc1/N=c1\cc(-c2ccc3c(c2)OCO3)oc2ccccc12` [Compound 5e, (E)-3-amino-N-(2-((2-(benzo[d][1,3]dioxol-5-yl)-4H-chromen-4-ylidene)amino)phenyl)propanamide], 0.317 ± 0.0191 µM.
Same read-out and setting: the result for `CS(=O)(=O)NCCC(=O)Nc1ccccc1/N=c1\cc(-c2ccc3nc(N)oc3c2)oc2ccccc12` [Compound 12d, (E)-N-(2-((2-(2-aminobenzo[d]oxazol-6-yl)-4H-chromen-4-ylidene)amino)phenyl)-3-(methylsulfonamido)propanamide] reads 3.39 ± 0.164 µM.
On the same count and under the same terms, the result for `COCCC(=O)Nc1ccccc1/N=c1\cc(-c2ccc3c(c2)OCO3)oc2ccccc12` [Compound 5d, (E)-N-(2-((2-(benzo[d][1,3]dioxol-5-yl)-4H-chromen-4-ylidene)amino)phenyl)-3-methoxypropanamide] reads over 10 µM.
Turning to `CCNc1nc2ccc(-c3c/c(=N\c4ccccc4NC(=O)CCN)c4ccccc4o3)cc2o1` [Compound 15, (E)-3-amino-N-(2-((2-(2-(ethylamino)benzo[d]oxazol-6-yl)-4H-chromen-4-ylidene)amino)phenyl)propanamide], 2.66 ± 0.38 µM corresponded to half-maximal inhibition (IC50).
On the same count and under the same terms, in the case of `NCCC(=O)Nc1cccc(/N=c2\cc(-c3ccc4c(c3)OCO4)oc3ccccc23)c1` [Compound 5ab, (E)-3-amino-N-(3-((2-(benzo[d][1,3]dioxol-5-yl)-4H-chromen-4-ylidene)amino)phenyl)propanamide] it was over 10 µM; in that of `NCC(=O)Nc1ccccc1/N=c1\cc(-c2ccc3c(c2)OCO3)oc2ccccc12` [Compound 5a, (E)-2-amino-N-(2-((2-(benzo[d][1,3]dioxol-5-yl)-4H-chromen-4-ylidene)amino)phenyl)acetamide], 0.719 ± 0.0074 µM; in that of `Nc1ccccc1/N=c1\cc(-c2ccc3c(c2)OCO3)oc2ccccc12` [Compound 4a], 1.54 ± 0.0211 µM.
The compound `NCCCC(=O)Nc1ccccc1/N=c1\cc(-c2ccc3c(c2)OCO3)oc2ccccc12` [Compound 5f, (E)-4-amino-N-(2-((2-(benzo[d][1,3]dioxol-5-yl)-4H-chromen-4-ylidene)amino)phenyl)butanamide] showed an IC50 of 8.19 ± 1.85 µM.
As to `O=C(Nc1ccccc1/N=c1\cc(-c2ccc3c(c2)OCO3)oc2ccccc12)N1CCNCC1` [Compound 5i, (E)-N-(2-((2-(benzo[d][1,3]dioxol-5-yl)-4H-chromen-4-ylidene)amino)phenyl)piperazine-1-carboxamide], the concentration for half-maximal inhibition (IC50) is 7.47 ± 0.139 µM.
The same measure, in the same setting: the result for `CCN(CC)CCC(=O)Nc1ccccc1/N=c1\cc(-c2ccc3nc(N)oc3c2)oc2ccccc12` [Compound 12f, (E)-N-(2-((2-(2-aminobenzo[d]oxazol-6-yl)-4H-chromen-4-ylidene)amino)phenyl)-3-(diethylamino)propanamide] reads over 10 µM.
Still for that read-out and setting: in the case of `NCCC(=O)Nc1ccccc1/N=c1\cc(-c2ccc3oc(N)nc3c2)oc2ccccc12` [Compound 21, (E)-3-amino-N-(2-((2-(2-aminobenzo[d]oxazol-5-yl)-4H-chromen-4-ylidene)amino)phenyl)propanamide] it was 0.696 ± 0.0582 µM; in that of `COCCC(=O)Nc1ccccc1/N=c1\cc(-c2ccc3nc(N)oc3c2)oc2ccccc12` [Compound 12b, (E)-N-(2-((2-(2-aminobenzo[d]oxazol-6-yl)-4H-chromen-4-ylidene)amino)phenyl)-3-methoxypropanamide], 3.37 ± 0.334 µM.

Still in this experiment, the particulars now being: vs 12a.
`NCCC(=O)Nc1ccccc1/N=c1\cc(-c2ccc3oc(N)nc3c2)oc2ccccc12` [Compound 21, (E)-3-amino-N-(2-((2-(2-aminobenzo[d]oxazol-5-yl)-4H-chromen-4-ylidene)amino)phenyl)propanamide]: the “fold decrease in kinase inhibitory activity (mTOR)” value came out at 15.4 fold.

The subject of a further experiment is MDA-MB-231 cells. As to the kind of experiment: Cell viability CCK-8 assay. It counts as cell-based, human. Conditions: Homo sapiens, MDA-MB-231, 48 h, read-out: Antiproliferative IC50 ± SD. On the technique in general: Tetrazolium assays rely on reduction of a dye to a coloured formazan, in cell work by metabolically active cells.
Take `CO[C@H]1C[C@@H]2CC[C@@H](C)[C@@](O)(O2)C(=O)C(=O)N2CCCC[C@H]2C(=O)O[C@H]([C@H](C)C[C@@H]2CC[C@@H](OCCO)[C@H](OC)C2)CC(=O)[C@H](C)/C=C(\C)[C@@H](O)[C@@H](OC)C(=O)[C@H](C)C[C@H](C)/C=C/C=C/C=C/1C` [Everolimus, reference compound]: the 50% inhibitory concentration (IC50) is 2280 ± 76.3 nM.
The same measure, in the same setting: in the case of `CC(C)n1nc(-c2ccc3oc(N)nc3c2)c2c(N)ncnc21` [MLN-0128, reference compound] it was 179 ± 238 nM.

The values above are taken from publication PMC13366236 (Acta Pharmaceutica Sinica. B, 2025).
